Values quoted from earlier work in patent US5627202A, “Inhibitors of farnesyl-protein transferase” (Merck & Co., Inc., priority 1996, dated 1997).

System: farnesyl-protein transferase
Details: via HMG-CoA reductase inhibition

Row | SMILES | Indirect inhibition of farnesyl-protein transferase in vivo
1 | CC[C@H](C)C(=O)O[C@H]1CCC=C2C=C[C@H](C)[C@H](CC[C@@H]3C[C@@H](O)CC(=O)O3)[C@H]21 [compactin] | Indirect inhibition of farnesyl-protein transferase in vivo
2 | CC[C@H](C)C(=O)O[C@H]1C[C@@H](C)C=C2C=C[C@H](C)[C@H](CC[C@@H]3C[C@@H](O)CC(=O)O3)[C@H]21 [lovastatin] | Indirect inhibition of farnesyl-protein transferase in vivo
